Laboratory results from patent publication US20130287763A1, “COMBINATION THERAPY FOR TREATING CANCER COMPRISING AN IGF-1R INHIBITOR AND AN AKT INHIBITOR” (MERCK SHARP & DOHME CORP., priority 2010, published 2013).
“Also recorded” adds a separate entry of the source.

Columns and labels:
[1] = test system: HT-29 cells; assay: Western blot of HT-29 cells treated with increasing doses of MK-2206; format: cell-based, human; details: MK-2206 0.041-1.11 um, western blot (FIG. 1A)
Experimental: All CRC and NSCLC cell lines were obtained from ATCC and maintained in 10% fetal bovine serum, FBS (Hyclone) containing media (DMEM or RPMI; Invitrogen Inc) supplemented with pen-strep (Invitrogen) at 37° C. according to the instructions from ATCC. Total protein lysates from cells (˜0.3 million) cultured in 6 well plates were generated by removing the media, rinsing once with PBS and lysing in NP-40 buffer (1% NP-40, 20 MM Tris-HCL (pH8.0), 137 mM NaCl, 10% glycerol, 2 mM EDTA, Mini Complete protease inhibitor, HALT phosphatase Inhibitor cocktail). Samples were western blotted with indicated total or phosphor-specific antibodies followed by a secondary antibody (Cell Signaling Technology, CST) and then incubated with SuperSignal chemiluminescence substrate (Pierce). The blots were then exposed to a Kodak Biomax Light Film. The antibodies against ERK, p-ERK (Thr202/Tyr204), AKT and p-AKT (Ser473), IGF1R13, S6K & P-S6K (T389), IRS1 & P-IRS1 (S302) and actin were obtained from CST. Total IGF1R antibody was obtained from Santa Cruz and GAPDH was obtained from Chemicon.

[2] = test system: HT-29 cells; assay: Phospho-RTK arrays, HT-29 cells; format: cell-based, human
Experimental: (§1) All CRC and NSCLC cell lines were obtained from ATCC and maintained in 10% fetal bovine serum, FBS (Hyclone) containing media (DMEM or RPMI; Invitrogen Inc) supplemented with pen-strep (Invitrogen) at 37° C. according to the instructions from ATCC.
(§2) About 2 million cells were cultured in 10 cm plates and protein lysates were prepared from a sub-confluent culture. 500 ug of protein lysate were incubated with RTK Arrays (R&D bioscience; cat# ARY001) and developed as detailed in the manual. The arrays were probed with HRP-conjugated P-Tyr antibody and then incubated with Super-Signal chemiluminescence substrate (Pierce) and blots were then exposed to a Kodak Biomax Light Film.

[3] = test system: SKCO1 (CRC), HCC70 (breast cancer), H1793 (NSCLC) cells; assay: Phospho-RTK arrays, cell lines from different cancer types; format: cell-based, human; details: cell type-dependent
Experimental: as §2, with “All CRC and NSCLC cell lines were obtained from ATCC and maintained in 10% fetal bovine serum, FBS (Hyclone) containing media (DMEM or RPMI; Invitrogen Inc) supplemented with pen-strep (Invitrogen) at 37° C. according to the instructions from ATCC. About” for “About”

[4] = test system: SKCO1 (KRASmut) xenograft tumors; assay: SKCO1 xenograft growth assessment; format: in vivo, mice; details: MK-0646 20 mg/kg i.p. once a week, MK-2206 140 mg/kg p.o. 3-times a week (FIG. 4)
Experimental: (§3) A suspension of human SKCO1 and SW837 cells (5×10^6) and HT29 (3×10^6) in Matrigel (Cat. #356231, BD Biosciences; 1:1 v/v) were injected subcutaneously into the right flank of 4-6 week old SCID Hairless Outbred (SHO), NOD SCID, or CD-1 nu/nu (Jackson Laboratories) mice, respectively. When tumors reached a size of ˜300 mm3 (Length*Width*Width*0.5), mice were randomized into treatment groups. […] Animals were weighed and tumor volumes were determined by calipering 2 times per week during the study and at termination. Tumor weight was measured and recorded at termination. On day 28 animals were sacrificed by CO2 asphyxiation. […] At time of sacrifice tumors pieces were collected for western blot analysis (snap frozen in liquid nitrogen) and for immunohistochemistry (10% neutral buffered formalin).

[5] = test system: SW837 (KRASG12C) xenograft tumors; assay: SW837 xenograft growth assessment; format: in vivo, mice; details: compared to the vehicle treated group (FIG. 5)
Experimental: as §3

[6] = test system: IGF-1R signaling pathway; assay: Western blot analysis of IGF-1R/PI3K pathway activity in xenograft tumor samples; format: in vivo, mice; details: 24 hrs after MK-0646 or 6 hrs after MK-2206 (FIG. 6)
Experimental: Total protein lysates from cells (˜0.3 million) cultured in 6 well plates were generated by removing the media, rinsing once with PBS and lysing in NP-40 buffer (1% NP-40, 20 MM Tris-HCL (pH8.0), 137 mM NaCl, 10% glycerol, 2 mM EDTA, Mini Complete protease inhibitor, HALT phosphatase Inhibitor cocktail). Samples were western blotted with indicated total or phosphor-specific antibodies followed by a secondary antibody (Cell Signaling Technology, CST) and then incubated with SuperSignal chemiluminescence substrate (Pierce). The blots were then exposed to a Kodak Biomax Light Film. The antibodies against ERK, p-ERK (Thr202/Tyr204), AKT and p-AKT (Ser473), IGF1R13, S6K & P-S6K (T389), IRS1 & P-IRS1 (S302) and actin were obtained from CST. Total IGF1R antibody was obtained from Santa Cruz and GAPDH was obtained from Chemicon. A suspension of human SKCO1 and SW837 cells (5×10^6) and HT29 (3×10^6) in Matrigel (Cat. #356231, BD Biosciences; 1:1 v/v) were injected subcutaneously into the right flank of 4-6 week old SCID Hairless Outbred (SHO), NOD SCID, or CD-1 nu/nu (Jackson Laboratories) mice, respectively. When tumors reached a size of ˜300 mm3 (Length*Width*Width*0.5), mice were randomized into treatment groups. […] Animals were weighed and tumor volumes were determined by calipering 2 times per week during the study and at termination. Tumor weight was measured and recorded at termination. […]

[7] = test system: SW-837 cells; assay: Phospho-RTK arrays, SW-837 cells; format: cell-based, human; details: SW-837, 20.95 ug/ml MK-0646, 18 hrs (FIG. 3C)
Experimental: as §1, §2

[8] = HT-29 cells, 1 uM MK-2206, 18 hrs, RTK arrays (FIG. 1B)

Compound | phosphorylation of AKT [1] | total IGF-1R levels [1] | phosphorylation of IGF-1R [2, 8] | phosphorylation of IR and cMET [2, 8] | RTK activity (Her2) ([3]; MK-2206, 18 hrs, RTK arrays (FIG. 2)) | phosphorylation of RTKs (IGF-1R, IR, cMET, Her2, Her3, EphA2) ([3]; SKCO1 370 nM, HCC70 370 nM, H1793 1 uM MK-2206, 18 hrs (FIG. 2)) | tumor growth inhibition compared to vehicle treated control group [4] | tumor growth inhibition [5] | IGF-1R signaling as measured by phosphorylation of IGF-1R [6] | amount of active cMET and insulin receptor ([2]; HT-29, 20.95 ug/ml MK-0646, 18 hrs (FIG. 3A)) | amount of active cMET and insulin receptor [7]
NC1(c2ccc(-c3nc4ccn5c(=O)[nH]nc5c4cc3-c3ccccc3)cc2)CCC1 [MK-2206, 8-[4-(1-Aminocyclobutyl)phenyl]-9-phenyl[1,2,4]triazolo[3,4-f]-1,6-naphthyridin-3(2H)-one] | diminished in a dose dependent manner | increase in a dose dependent manner | increase | observed | can decrease | increasing the phosphorylation of multiple RTKs | significant growth inhibition; also recorded: significantly inhibited tumor growth | ~30% | feedback activation of IGF-1R signaling |  | 
MK-0646: humanized antibody characterized as binding IGF-1R as well as the IR/IGF-1 hybrid receptor |  |  |  |  |  |  | significant growth inhibition; also recorded: significantly inhibited tumor growth | ~10% |  | reduced | reduced
